Reference: patent publication US9381148B2, “Composition comprising particulate zinc material with a high relative zinc lability” (priority 2003, dated 2016)
Where two headings read alike, the source gives them in different places.

Tests used:
[1] = Description: Those materials with high potential to bind to the PZM surface are ZBM's that form only sparingly soluble salts with zinc in water. “Sparingly soluble” refers to zinc salts with 1 gram(g)/100 g water solubility or less. These are the materials that form precipitated surface species on the PZM that interfere with zinc lability. A summary of the solubilities of common zinc salts is shown below: […]
[2] = zinc salt of the counterion; reference A, selected literature data for 25–30° C.; cited from earlier work

Compound | Solubility (g/100 g water) ([1]; pH 7) | further results
Laurate |  | Solubility (g/100 g water) ([1]; zinc salt of the counterion, reference B, commercially sourced materials (Pfaltz & Bauer), water at pH 7 and room temperature, filtered, ICP): 0.012 g/100 g water
Phosphate | 0.0013 | 
O=C(O)c1ccccc1O [Salicylate] | 0.29 | 
[O-][Cl+3]([O-])([O-])O [Perchlorate] |  | Solubility (g/100 g water) [2]: 113.5 g/100 g water
